From BindingDB's records for doi:10.1111/j.1747-0285.2009.00857.x (Istituto Di Biostrutture E Bioimmagini-Cnr, 2009)

Experiments:
Experiment in all cases: Inhibition Assay
Conditions in all cases: pH 7.5; 20 °C
Carbonic anhydrase 1 = Carbonic anhydrase 1 (Homo sapiens, UniProt P00915)
Source text: (§1) Inhibition assay using carbonic anhydrases with an SX.18MV-R, a stopped-flow instrument from Applied Photophysics was used for assaying the CA catalyzed CO2 hydration activity.

Carbonic anhydrase 12 = Carbonic anhydrase 12 (Homo sapiens, UniProt O43570)
Source text: as §1

Carbonic anhydrase 13 = Carbonic anhydrase 13 (Homo sapiens, UniProt Q8N1Q1)
Source text: as §1

Carbonic anhydrase 14 = Carbonic anhydrase 14 (Homo sapiens, UniProt Q9ULX7)
Source text: as §1

Carbonic anhydrase 3 = Carbonic anhydrase 3 (Homo sapiens, UniProt P07451)
Source text: as §1

Carbonic anhydrase 4 = Carbonic anhydrase 4 (Homo sapiens, UniProt P22748)
Source text: as §1

[1] = target: Carbonic anhydrase 5A, mitochondrial (Homo sapiens, UniProt P35218)
Source text: as §1

[2] = target: Carbonic anhydrase 5B, mitochondrial (Homo sapiens, UniProt Q9Y2D0)
Source text: as §1

Carbonic anhydrase 6 = Carbonic anhydrase 6 (Homo sapiens, UniProt P23280)
Source text: as §1

Carbonic anhydrase 7 = Carbonic anhydrase 7 (Homo sapiens, UniProt P43166)
Source text: as §1

Carbonic anhydrase 2 = Carbonic anhydrase 2 (Homo sapiens, UniProt P00918)
Source text: as §1

Sequence of Carbonic anhydrase 5B, mitochondrial (Q9Y2D0 whole entry): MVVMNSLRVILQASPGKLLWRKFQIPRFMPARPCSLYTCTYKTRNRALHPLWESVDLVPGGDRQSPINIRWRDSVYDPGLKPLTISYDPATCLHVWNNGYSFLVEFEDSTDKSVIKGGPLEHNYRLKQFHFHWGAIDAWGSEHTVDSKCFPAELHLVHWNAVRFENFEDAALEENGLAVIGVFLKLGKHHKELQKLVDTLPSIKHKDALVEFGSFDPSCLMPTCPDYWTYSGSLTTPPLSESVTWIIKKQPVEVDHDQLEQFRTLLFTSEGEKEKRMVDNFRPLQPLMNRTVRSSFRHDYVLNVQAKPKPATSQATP
Sequence of Carbonic anhydrase 1 (P00915 whole entry): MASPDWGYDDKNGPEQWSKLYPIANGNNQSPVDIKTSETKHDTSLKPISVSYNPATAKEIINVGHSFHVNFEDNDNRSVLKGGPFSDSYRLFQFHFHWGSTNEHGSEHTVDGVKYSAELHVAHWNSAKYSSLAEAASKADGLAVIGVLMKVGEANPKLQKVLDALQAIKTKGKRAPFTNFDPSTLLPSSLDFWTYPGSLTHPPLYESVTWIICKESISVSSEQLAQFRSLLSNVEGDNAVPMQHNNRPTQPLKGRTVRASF
Sequence of Carbonic anhydrase 13 (Q8N1Q1 whole entry): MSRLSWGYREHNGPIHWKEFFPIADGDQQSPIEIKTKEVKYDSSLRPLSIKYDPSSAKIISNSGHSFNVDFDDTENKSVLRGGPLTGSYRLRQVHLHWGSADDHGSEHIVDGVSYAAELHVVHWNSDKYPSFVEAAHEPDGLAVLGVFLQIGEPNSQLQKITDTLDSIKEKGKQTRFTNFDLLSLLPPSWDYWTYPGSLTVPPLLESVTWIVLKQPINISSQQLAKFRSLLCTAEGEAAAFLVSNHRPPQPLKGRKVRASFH
Sequence of Carbonic anhydrase 14 (Q9ULX7 whole entry): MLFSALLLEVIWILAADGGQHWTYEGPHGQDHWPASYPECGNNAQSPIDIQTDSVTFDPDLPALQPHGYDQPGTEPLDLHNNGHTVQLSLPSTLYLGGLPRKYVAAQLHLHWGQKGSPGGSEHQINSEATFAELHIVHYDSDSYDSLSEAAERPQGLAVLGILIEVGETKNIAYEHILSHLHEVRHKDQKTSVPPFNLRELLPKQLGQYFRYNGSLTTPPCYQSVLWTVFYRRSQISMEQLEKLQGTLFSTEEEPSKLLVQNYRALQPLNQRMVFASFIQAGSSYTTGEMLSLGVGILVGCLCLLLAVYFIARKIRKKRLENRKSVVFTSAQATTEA
Sequence of Carbonic anhydrase 12 (O43570 whole entry): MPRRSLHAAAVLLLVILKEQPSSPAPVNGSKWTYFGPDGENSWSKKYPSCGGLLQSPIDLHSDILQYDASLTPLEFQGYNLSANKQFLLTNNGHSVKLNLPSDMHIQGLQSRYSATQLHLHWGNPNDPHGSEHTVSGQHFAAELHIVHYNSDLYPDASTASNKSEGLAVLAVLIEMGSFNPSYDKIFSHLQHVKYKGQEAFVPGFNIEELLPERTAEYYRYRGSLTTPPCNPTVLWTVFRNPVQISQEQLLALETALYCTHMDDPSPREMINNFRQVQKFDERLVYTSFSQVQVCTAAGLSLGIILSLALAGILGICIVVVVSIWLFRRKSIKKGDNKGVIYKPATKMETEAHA
Sequence of Carbonic anhydrase 4 (P22748 whole entry): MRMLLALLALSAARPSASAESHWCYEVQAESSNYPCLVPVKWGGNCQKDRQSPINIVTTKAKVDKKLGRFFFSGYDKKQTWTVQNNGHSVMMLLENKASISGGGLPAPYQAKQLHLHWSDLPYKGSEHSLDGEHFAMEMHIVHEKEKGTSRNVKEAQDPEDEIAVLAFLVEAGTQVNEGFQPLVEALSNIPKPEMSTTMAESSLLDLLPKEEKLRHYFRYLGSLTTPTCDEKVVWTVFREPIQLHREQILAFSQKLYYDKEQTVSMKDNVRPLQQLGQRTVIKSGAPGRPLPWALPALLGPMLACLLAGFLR
Sequence of Carbonic anhydrase 3 (P07451 whole entry): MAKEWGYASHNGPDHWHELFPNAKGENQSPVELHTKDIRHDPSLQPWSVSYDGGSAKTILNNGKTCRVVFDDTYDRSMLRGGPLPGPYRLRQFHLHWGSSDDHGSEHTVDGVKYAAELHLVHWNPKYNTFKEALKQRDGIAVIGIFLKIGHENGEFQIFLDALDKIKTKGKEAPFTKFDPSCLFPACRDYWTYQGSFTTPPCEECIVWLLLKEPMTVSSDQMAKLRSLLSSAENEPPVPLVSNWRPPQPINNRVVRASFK
Sequence of Carbonic anhydrase 5A, mitochondrial (P35218 whole entry): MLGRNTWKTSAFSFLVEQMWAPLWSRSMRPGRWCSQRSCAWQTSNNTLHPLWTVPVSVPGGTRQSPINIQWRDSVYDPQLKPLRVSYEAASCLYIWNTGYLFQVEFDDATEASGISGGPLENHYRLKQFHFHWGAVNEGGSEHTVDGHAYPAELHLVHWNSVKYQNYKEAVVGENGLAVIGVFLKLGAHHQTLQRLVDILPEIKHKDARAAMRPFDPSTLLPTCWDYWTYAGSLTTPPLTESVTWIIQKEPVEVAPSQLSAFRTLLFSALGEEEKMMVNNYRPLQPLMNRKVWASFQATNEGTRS
Sequence of Carbonic anhydrase 7 (P43166 whole entry): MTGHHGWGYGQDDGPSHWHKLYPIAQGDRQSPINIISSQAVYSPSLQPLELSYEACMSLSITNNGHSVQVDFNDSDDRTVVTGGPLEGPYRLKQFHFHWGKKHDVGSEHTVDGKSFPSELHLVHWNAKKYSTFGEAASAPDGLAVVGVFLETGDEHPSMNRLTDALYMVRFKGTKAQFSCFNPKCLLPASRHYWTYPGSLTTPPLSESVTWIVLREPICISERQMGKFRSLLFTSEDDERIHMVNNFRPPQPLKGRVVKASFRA
Sequence of Carbonic anhydrase 6 (P23280 whole entry): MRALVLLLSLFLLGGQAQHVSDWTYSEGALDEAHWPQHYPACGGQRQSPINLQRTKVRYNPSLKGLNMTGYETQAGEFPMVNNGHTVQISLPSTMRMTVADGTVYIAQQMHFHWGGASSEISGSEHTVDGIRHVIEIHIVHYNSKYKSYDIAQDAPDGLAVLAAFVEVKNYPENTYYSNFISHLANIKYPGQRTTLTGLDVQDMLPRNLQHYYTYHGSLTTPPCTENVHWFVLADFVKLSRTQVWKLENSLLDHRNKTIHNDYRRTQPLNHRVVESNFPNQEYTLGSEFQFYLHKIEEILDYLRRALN

Ki (Carbonic anhydrase 1) [nM]	Ki (Carbonic anhydrase 12) [nM]	SMILES	Ki (Carbonic anhydrase 13) [nM]	Ki (Carbonic anhydrase 14) [nM]	Ki (Carbonic anhydrase 3) [nM]	Ki (Carbonic anhydrase 4) [nM]	Ki [1] [nM]	Ki [2] [nM]	Ki (Carbonic anhydrase 6) [nM]	Ki (Carbonic anhydrase 7) [nM]	Ki (Carbonic anhydrase 2) [nM]
250	3.8	CC1(C)O[C@@H]2[C@@H](CC[C@@]3(COS(N)(=O)=O)OC(C)(C)O[C@@H]23)O1	47	1460	780000	4900	63	30	45		
850	0.9	NS(=O)(=O)c1nnc(NC(=O)[C@]23C[C@H]4C[C@H](C[C@H](C4)C2)C3)s1 [Investigational agent, 4]			310000					0.5	
		NS(=O)(=O)c1ccc(N2CCCCS2(=O)=O)cc1 [Ospolot]	1450	1540	630000	95	81	91			

SMILES	Ki (Carbonic anhydrase 1) [nM]	Ki (Carbonic anhydrase 12) [nM]	Ki (Carbonic anhydrase 13) [nM]	Ki (Carbonic anhydrase 14) [nM]	Ki (Carbonic anhydrase 3) [nM]	Ki (Carbonic anhydrase 4) [nM]	Ki [1] [nM]	Ki [2] [nM]	Ki (Carbonic anhydrase 6) [nM]	Ki (Carbonic anhydrase 7) [nM]	Ki (Carbonic anhydrase 2) [nM]
NS(=O)(=O)c1nnc(NC(=O)N[C@]23C[C@H]4C[C@H](C[C@H](C4)C2)C3)s1 [Investigational agent, 5]	810	4.7	39	15	330000	30	135	45	31	1.3	13
